Source: PubChem BioAssay (NCI)
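All cell lines were grown in 96-well plates and treated with compound for 48 hours. TGI: concentration producing complete growth inhibition.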

Legend:
Test in all cases: inhibition of tumour cell growth, NCI panel, 48 h
[1] = system: A549 NSCLC
[2] = system: DU-145 prostate
[3] = system: HCT-116 colon
[4] = system: HCT-15 colon
[5] = system: HT29 colon
[6] = system: K-562 leukemia
[7] = system: KM12 colon
[8] = system: MCF7 breast
[9] = system: MDA-MB-231 breast
[10] = system: MOLT-4 leukemia
[11] = system: NCI-H460 lung
[12] = system: OVCAR-8 ovarian
[13] = system: SK-MEL-2 melanoma
[14] = system: SK-MEL-28 melanoma
[15] = system: SK-OV-3 ovarian
[16] = system: SNB-19 CNS
[17] = system: SNB-75 CNS
[18] = system: U251 CNS
[19] = system: HL-60(TB) leukemia

CCOC(=O)c1nc2ccc(C(F)(F)F)cc2nc1Oc1ccc(OC)cc1
TGI [1]: > 100 µM | TGI [2]: > 100 µM | TGI [3]: > 100 µM | TGI [4]: > 100 µM | TGI [5]: > 100 µM | TGI [6]: > 100 µM | TGI [7]: > 100 µM | TGI [8]: > 100 µM | TGI [9]: > 100 µM | TGI [10]: > 100 µM | TGI [11]: > 100 µM | TGI [12]: > 100 µM | TGI [13]: > 100 µM | TGI [14]: > 100 µM | TGI [15]: > 100 µM | TGI [16]: > 100 µM | TGI [17]: > 100 µM | TGI [18]: > 100 µM

CCOc1ccc(OP2(=O)NC(=O)C=C(C)N2)cc1 (centres undefined)
TGI [1]: > 100 µM | TGI [3]: > 100 µM | TGI [4]: > 100 µM | TGI [19]: > 100 µM | TGI [5]: > 100 µM | TGI [6]: > 100 µM | TGI [7]: > 100 µM | TGI [10]: > 100 µM | TGI [11]: > 100 µM | TGI [12]: > 100 µM | TGI [13]: > 100 µM | TGI [14]: > 100 µM | TGI [15]: > 100 µM | TGI [16]: > 100 µM | TGI [17]: > 100 µM | TGI [18]: > 100 µM

CCOC(OCC)(OCC)C(Br)CC (centres undefined)
TGI [1]: > 100 µM | TGI [3]: 19 µM | TGI [19]: > 100 µM | TGI [5]: > 100 µM | TGI [6]: > 100 µM | TGI [7]: > 100 µM | TGI [10]: > 100 µM | TGI [11]: > 100 µM | TGI [12]: > 100 µM | TGI [13]: > 100 µM | TGI [14]: > 100 µM | TGI [15]: > 100 µM | TGI [16]: > 100 µM | TGI [17]: > 100 µM | TGI [18]: > 100 µM

NC(Cc1cc(I)c(Oc2ccc(O)c(I)c2)c(I)c1)C(=O)O (centres undefined)
TGI [1]: > 100 µM | TGI [2]: > 100 µM | TGI [3]: > 100 µM | TGI [4]: > 100 µM | TGI [5]: > 100 µM | TGI [7]: > 100 µM | TGI [8]: > 100 µM | TGI [9]: > 100 µM | TGI [12]: > 100 µM | TGI [13]: 41 µM | TGI [14]: > 100 µM | TGI [15]: > 100 µM | TGI [16]: > 100 µM | TGI [17]: > 100 µM | TGI [18]: > 100 µM

CCN(C(=O)N[C@@H](CC(C)C)C(=O)NCC(=O)OC)c1ccccc1
TGI [1]: > 100 µM | TGI [2]: > 100 µM | TGI [3]: > 100 µM | TGI [4]: > 100 µM | TGI [5]: > 100 µM | TGI [6]: > 100 µM | TGI [7]: > 100 µM | TGI [8]: > 100 µM | TGI [9]: > 100 µM | TGI [10]: > 100 µM | TGI [11]: > 100 µM | TGI [12]: > 100 µM | TGI [13]: > 100 µM | TGI [14]: > 100 µM | TGI [15]: > 100 µM | TGI [16]: > 100 µM | TGI [17]: > 100 µM | TGI [18]: > 100 µM

COc1cc(Nc2cc(Cl)cc(Cl)c2)nc(N)n1
TGI [1]: 48.5 µM | TGI [2]: 48.6 µM | TGI [3]: 31 µM | TGI [4]: 36.5 µM | TGI [5]: 33.2 µM | TGI [6]: > 100 µM | TGI [7]: 37 µM | TGI [8]: 91.4 µM | TGI [9]: 43.8 µM | TGI [10]: 51 µM | TGI [11]: 34 µM | TGI [12]: 39.6 µM | TGI [13]: 32.1 µM | TGI [15]: 64.5 µM | TGI [16]: 64.8 µM | TGI [17]: 43.6 µM | TGI [18]: 41.2 µM

S=c1[nH]nc(Cn2c3ccc(Br)cc3c3nc4ccccc4nc32)o1
TGI [1]: 59.3 µM | TGI [2]: > 100 µM | TGI [3]: > 100 µM | TGI [4]: > 100 µM | TGI [5]: > 100 µM | TGI [6]: > 100 µM | TGI [7]: > 100 µM | TGI [8]: > 100 µM | TGI [9]: > 100 µM | TGI [10]: 60.5 µM | TGI [11]: > 100 µM | TGI [12]: > 100 µM | TGI [13]: > 88.6 µM | TGI [14]: > 79.2 µM | TGI [15]: > 100 µM | TGI [16]: > 100 µM | TGI [17]: > 100 µM | TGI [18]: > 92.4 µM

Cc1csc(=Nc2ccccc2)n1CCC(O)(P(=O)(O)O)P(=O)(O)O
TGI [1]: > 100 µM | TGI [2]: > 100 µM | TGI [3]: > 100 µM | TGI [4]: > 100 µM | TGI [5]: > 100 µM | TGI [7]: > 100 µM | TGI [8]: > 100 µM | TGI [9]: > 100 µM | TGI [11]: > 100 µM | TGI [12]: > 100 µM | TGI [15]: > 100 µM | TGI [16]: > 100 µM | TGI [17]: > 100 µM

Cc1cc2nnn(C3CCCCO3)c2cc1C (centres undefined)
TGI [1]: > 100 µM | TGI [2]: > 100 µM | TGI [3]: > 100 µM | TGI [4]: > 100 µM | TGI [5]: > 100 µM | TGI [6]: > 100 µM | TGI [7]: > 100 µM | TGI [8]: > 100 µM | TGI [9]: > 100 µM | TGI [10]: > 100 µM | TGI [11]: > 100 µM | TGI [12]: > 100 µM | TGI [13]: > 100 µM | TGI [15]: > 100 µM | TGI [16]: > 100 µM | TGI [17]: > 100 µM | TGI [18]: > 100 µM

CN(CC(=O)Nc1ccccc1C(=O)O)c1ccccc1
TGI [1]: > 100 µM | TGI [2]: > 100 µM | TGI [3]: > 100 µM | TGI [4]: > 100 µM | TGI [19]: > 100 µM | TGI [5]: > 100 µM | TGI [6]: > 100 µM | TGI [7]: > 100 µM | TGI [8]: > 100 µM | TGI [9]: > 100 µM | TGI [10]: > 100 µM | TGI [11]: > 100 µM | TGI [12]: > 100 µM | TGI [14]: > 100 µM | TGI [16]: > 100 µM | TGI [17]: > 100 µM | TGI [18]: > 100 µM

Cc1cc(C=O)c2c(=O)c3c(O)ccc(/C=C/C(C)C)c3oc2c1
TGI [1]: > 100 µM | TGI [3]: 48.1 µM | TGI [4]: 99.6 µM | TGI [19]: 59.4 µM | TGI [5]: > 100 µM | TGI [6]: > 100 µM | TGI [7]: > 100 µM | TGI [10]: 86.5 µM | TGI [11]: > 100 µM | TGI [12]: > 100 µM | TGI [13]: > 100 µM | TGI [14]: > 100 µM | TGI [16]: > 100 µM | TGI [17]: > 100 µM | TGI [18]: > 100 µM

CN1S(=O)(=O)N(C)P12(N=P(CP(=NP13(N(C)S(=O)(=O)N1C)N(C)S(=O)(=O)N3C)(c1ccccc1)c1ccccc1)(c1ccccc1)c1ccccc1)N(C)S(=O)(=O)N2C
TGI [1]: > 100 µM | TGI [3]: > 100 µM | TGI [4]: > 100 µM | TGI [19]: > 100 µM | TGI [5]: > 100 µM | TGI [6]: > 100 µM | TGI [7]: > 100 µM | TGI [10]: > 100 µM | TGI [11]: > 100 µM | TGI [12]: > 100 µM | TGI [13]: > 100 µM | TGI [14]: > 100 µM | TGI [15]: > 100 µM | TGI [16]: > 100 µM | TGI [17]: > 100 µM | TGI [18]: > 100 µM

CS(=O)(=O)CCC1CCC(=O)O1 (centres undefined)
TGI [1]: > 100 µM | TGI [2]: > 100 µM | TGI [3]: > 100 µM | TGI [4]: > 100 µM | TGI [19]: > 100 µM | TGI [5]: > 100 µM | TGI [6]: > 100 µM | TGI [7]: > 100 µM | TGI [8]: > 100 µM | TGI [9]: > 100 µM | TGI [10]: > 100 µM | TGI [11]: > 100 µM | TGI [12]: > 100 µM | TGI [14]: > 100 µM | TGI [16]: > 100 µM | TGI [17]: > 100 µM | TGI [18]: > 100 µM

O=C(NC1CCCCC1)c1n[nH]nc1Cl
TGI [1]: > 100 µM | TGI [2]: > 100 µM | TGI [3]: > 100 µM | TGI [4]: > 100 µM | TGI [5]: > 100 µM | TGI [6]: > 100 µM | TGI [7]: > 100 µM | TGI [8]: > 100 µM | TGI [9]: > 100 µM | TGI [10]: > 100 µM | TGI [11]: > 100 µM | TGI [12]: > 100 µM | TGI [13]: > 100 µM | TGI [14]: > 100 µM | TGI [15]: > 100 µM | TGI [16]: > 100 µM | TGI [18]: > 100 µM
